According to patent publication EP1095025B1, “BENZIMIDAZOLES, PRODUCTION THEREOF AND USE THEREOF AS MEDICAMENTS” (Boehringer Ingelheim Pharma KG, priority 1998, dated 2000):
Where a name gives a salt, the structure may show the parent alone.

System: humanem Citrat-Plasma
Test: aPTT time prolongation in plasma (Biomatic B10 coagulometer)
Format: biochemical
Details: effective substance concentration, from a dose-response curve, at which the aPTT time is doubled versus control; human citrate plasma, 37°C

SMILES | aPTT-Zeit (ED200 in µM)
Cn1c(CNc2ccc(C(=N)N)cc2)nc2cc(C3(C(=NOCC(=O)O)c4ccccn4)CC3)ccc21 (mixture of isomers) [B, (E/Z)-2-(4-Amidinophenylaminomethyl)-1-methyl-5-[1-[(pyridin-2-yl)-(carboxymethyloxyimino)methylen]cyclopropyl]-benzimidazol-hydrochlorid] | 0.42 µM
Cl.Cn1c(CNc2ccc(C(=N)N)cc2)nc2cc(C3(C(=O)N4CCCC4)CC3)ccc21 [A, 2-(4-Amidinophenylaminomethyl)-1-methyl-5-[1-(pyrrolidin-1-yl-carbonyl)cyclopropyl]-benzimidazol-hydrochlorid] | 0.12 µM
Cl.Cn1c(CNc2ccc(C(=N)N)cc2)nc2cc(C(C)(NCCC(=O)O)C(=O)N3CCCC3)ccc21 (stereo not shown) [C, 2-(4-Amidinophenylaminomethyl)-1-methyl-5-[1-(2-carboxyethylamino)-1-(pyrrolidin-1-yl-carbonyl)-ethyl]-benzimidazol-hydrochlorid] | 0.31 µM
Cl.Cn1c(CNc2ccc(C(=N)N)cc2)nc2cc(C3(C(=O)N4CCCC4CCC(=O)O)CC3)ccc21 (stereo not shown) [D, 2-(4-Amidinophenylaminomethyl)-1-methyl-5-[1-[2-(2-carboxyethyl)-pyrrolidin-1-yl-carbonyl]cyclopropyl]-benzimidazol-hydrochlorid] | 0.29 µM
Cc1nc(CCC(=O)O)n(Cc2ccc3c(c2)nc(CNc2ccc(C(=N)N)cc2)n3C)c1C.Cl [E, 2-(4-Amidinophenylaminomethyl)-1-methyl-5-[2-(2-carboxyethyl)-4,5-dimethyl-imidazol-1-yl-methyl]-benzimidazol-hydrochlorid] | 0.29 µM
Cl.Cn1c(CNc2ccc(C(=N)N)cc2)nc2cc(C(C)(NCC(=O)O)C(=O)N3CCCC3)ccc21 (stereo not shown) [F, 2-(4-Amidinophenylaminomethyl)-1-methyl-5-[1-(carboxymethylamino)-1-(pyrrolidin-1-yl-carbonyl)-ethyl]-benzimidazol-hydrochlorid] | 0.20 µM
CN(CC(C)(C(=O)N1CCCC1)c1ccc2c(c1)nc(CNc1ccc(C(=N)N)cc1)n2C)C(=O)CC(=O)O (stereo not shown) [G, 2-(4-Amidinophenylaminomethyl)-1-methyl-5-[1-(N-methylcarboxymethylcarbonylaminomethyl)-1-methyl-1-(pyrrolidin-1-yl-carbonyl)-ethyl]-benzimidazol-dihydrochlorid] | 0.17 µM
